Patent US8968750B2, “Malaria vaccines based on apicomplexan ferlins, ferlin-like proteins and other C2-domain containing proteins” (Ruprecht-Karls-Universität Heidelberg, priority 2009, dated 2015)

System: peripheral blood mononuclear cells (PBMC)
Assay: cultured IFNγ ELISpot over 10 days with PBMCs stimulated with Pf Ferlin epitopes
Type: cell-based, human
Method: Each epitope was tested both individually and in pools of epitopes, which is summarised in this figure. Freshly isolated PBMCs from the blood of malaria-exposed and non-exposed (naïve) individuals were stimulated with the Pf Ferlin epitopes. The secretion of IFNγ was analysed by ELISpot. Pf AMA1, a known malarial blood stage antigen, was used as a positive control (FIG. 12B).
In order to investigate the presence of Pf Ferlin-specific T cells in malaria-exposed individuals, T-cell responses to Pf Ferlin peptides (NLLDPLVVV (SEQ ID NO:4), YLYVNIHKI (SEQ ID NO:5), LLLEGNFYL (SEQ ID NO:6), KLIPVNYEL (SEQ ID NO:7), YLYEKQQEL (SEQ ID NO:8), ILIPSLPLI (SEQ ID NO:9)) were tested in semi-immune Kenyan adults in collaboration with Dr. Britta urban at the Kenyan Medical Research Institute-Wellcome Trust Research Programme (KEMRI). All adults are resident in Junju District, about 60 km north of Mombasa at the Kenyan coast. The area has two high transmission seasons but low-level transmission occurs all year round (infectious bites per year:23-53) (Mwangi et al., 2005).
In order to determine the production of antigen-specific IFNγ by activated peripheral blood mononuclear cells (PBMC), cultured ELISpot analysis was carried out over a period of 10 days in malaria-exposed adults and malaria-naïve individuals. […] Furthermore, when studying the production of antigen-specific IFN-γ by activated peripheral blood mononuclear cells (PBMC) in 12 malaria-exposed adults and 5 malaria-naive individuals, Pf Ferlin-specific T cells were detected to at least one peptide in 4 out of 12 and to more than one peptide in 3 out of 12 malaria-exposed adults (Table 2).

In the case of “ILIPSLPLI (listed as Plasmodium falciparum) [Epitope 6]”, the “INFγ response to individual peptide (responder)” value (shortened to “INFγ response”) (Patient Ad) is reported as “no (An INFγ response above SFC 500 identified the patient as a responder.)”, the “INFγ response” value (Patient Fr) is reported as “no (An INFγ response above SFC 500 identified the patient as a responder.)” and the “INFγ response” value (Patient JA029) is reported as “no (An INFγ response above SFC 500 identified the patient as a responder.)”. The “INFγ response” value (Patient JA030) was “yes (An INFγ response above SFC 500 identified the patient as a responder.)”, the “INFγ response” value (Patient JA046) was “no (An INFγ response above SFC 500 identified the patient as a responder.)” and the “INFγ response” value (Patient JA047) was “no (An INFγ response above SFC 500 identified the patient as a responder.)”. For the same sequence, the “INFγ response” value (Patient JA066) was “no (An INFγ response above SFC 500 identified the patient as a responder.)”, the “INFγ response” value (Patient JA067) was “no (An INFγ response above SFC 500 identified the patient as a responder.)” and the “INFγ response” value (Patient JA086) was “no (An INFγ response above SFC 500 identified the patient as a responder.)”.
For “KLIPVNYEL (listed as Plasmodium falciparum) [Epitope 4]”, the “INFγ response” value (Patient Ad) was “no (An INFγ response above SFC 500 identified the patient as a responder.)”, the “INFγ response” value (Patient Fr) was “no (An INFγ response above SFC 500 identified the patient as a responder.)” and the “INFγ response” value (Patient JA006) was “no (An INFγ response above SFC 500 identified the patient as a responder.)”. For the same sequence, the “INFγ response” value (Patient JA007) was “no (An INFγ response above SFC 500 identified the patient as a responder.)”, the “INFγ response” value (Patient JA029) was “no (An INFγ response above SFC 500 identified the patient as a responder.)” and the “INFγ response” value (Patient JA030) was “yes (An INFγ response above SFC 500 identified the patient as a responder.)”. The “INFγ response” value (Patient JA046) was “no (An INFγ response above SFC 500 identified the patient as a responder.)”, the “INFγ response” value (Patient JA047) was “no (An INFγ response above SFC 500 identified the patient as a responder.)” and the “INFγ response” value (Patient JA066) was “no (An INFγ response above SFC 500 identified the patient as a responder.)”. For the same sequence, the “INFγ response” value (Patient JA067) was “no (An INFγ response above SFC 500 identified the patient as a responder.)” and the “INFγ response” value (Patient JA086) was “yes (An INFγ response above SFC 500 identified the patient as a responder.)”.
“LLLEGNFYL (listed as Plasmodium falciparum) [Epitope 3]” was tested, and the “INFγ response” value (Patient Ad) was “no (An INFγ response above SFC 500 identified the patient as a responder.)”, the “INFγ response” value (Patient Fr) was “no (An INFγ response above SFC 500 identified the patient as a responder.)” and the “INFγ response” value (Patient JA006) was “no (An INFγ response above SFC 500 identified the patient as a responder.)”. For the same sequence, the “INFγ response” value (Patient JA029) was “yes (An INFγ response above SFC 500 identified the patient as a responder.)”, the “INFγ response” value (Patient JA030) was “no (An INFγ response above SFC 500 identified the patient as a responder.)” and the “INFγ response” value (Patient JA046) was “no (An INFγ response above SFC 500 identified the patient as a responder.)”. The “INFγ response” value (Patient JA047) was “no (An INFγ response above SFC 500 identified the patient as a responder.)”, the “INFγ response” value (Patient JA066) was “no (An INFγ response above SFC 500 identified the patient as a responder.)” and the “INFγ response” value (Patient JA067) was “no (An INFγ response above SFC 500 identified the patient as a responder.)”. For the same sequence, the “INFγ response” value (Patient JA086) was “yes (An INFγ response above SFC 500 identified the patient as a responder.)”.
For “NLLDPLVVV (listed as Plasmodium falciparum) [Epitope 1]”, the “INFγ response” value (Patient Ad) was “yes (An INFγ response above SFC 500 identified the patient as a responder.)”, the “INFγ response” value (Patient Fr) was “no (An INFγ response above SFC 500 identified the patient as a responder.)” and the “INFγ response” value (Patient JA006) was “no (An INFγ response above SFC 500 identified the patient as a responder.)”. For the same sequence, the “INFγ response” value (Patient JA007) was “no (An INFγ response above SFC 500 identified the patient as a responder.)”, the “INFγ response” value (Patient JA029) was “yes (An INFγ response above SFC 500 identified the patient as a responder.)” and the “INFγ response” value (Patient JA030) was “no (An INFγ response above SFC 500 identified the patient as a responder.)”. For the same sequence, the “INFγ response” value (Patient JA046) was “no (An INFγ response above SFC 500 identified the patient as a responder.)”, the “INFγ response” value (Patient JA047) was “no (An INFγ response above SFC 500 identified the patient as a responder.)” and the “INFγ response” value (Patient JA066) was “no (An INFγ response above SFC 500 identified the patient as a responder.)”. The “INFγ response” value (Patient JA067) was “no (An INFγ response above SFC 500 identified the patient as a responder.)”, the “INFγ response” value (Patient JA086) was “no (An INFγ response above SFC 500 identified the patient as a responder.)” and the “INFγ response” value (Patient JA087) was “no (An INFγ response above SFC 500 identified the patient as a responder.)”.
For “YLYEKQQEL (listed as Plasmodium falciparum) [Epitope 5]”, the “INFγ response” value (Patient Ad) was “no (An INFγ response above SFC 500 identified the patient as a responder.)”, the “INFγ response” value (Patient Fr) was “no (An INFγ response above SFC 500 identified the patient as a responder.)” and the “INFγ response” value (Patient JA006) was “no (An INFγ response above SFC 500 identified the patient as a responder.)”. For the same sequence, the “INFγ response” value (Patient JA029) was “no (An INFγ response above SFC 500 identified the patient as a responder.)”, the “INFγ response” value (Patient JA030) was “yes (An INFγ response above SFC 500 identified the patient as a responder.)” and the “INFγ response” value (Patient JA046) was “no (An INFγ response above SFC 500 identified the patient as a responder.)”. The “INFγ response” value (Patient JA047) was “no (An INFγ response above SFC 500 identified the patient as a responder.)” and the “INFγ response” value (Patient JA086) was “no (An INFγ response above SFC 500 identified the patient as a responder.)”.
“YLYVNIHKI (listed as Plasmodium falciparum) [Epitope 2]” was tested, and the “INFγ response” value (Patient Ad) was “no (An INFγ response above SFC 500 identified the patient as a responder.)”, the “INFγ response” value (Patient Fr) was “no (An INFγ response above SFC 500 identified the patient as a responder.)” and the “INFγ response” value (Patient JA006) was “no (An INFγ response above SFC 500 identified the patient as a responder.)”. For the same sequence, the “INFγ response” value (Patient JA029) was “yes (An INFγ response above SFC 500 identified the patient as a responder.)”, the “INFγ response” value (Patient JA030) was “no (An INFγ response above SFC 500 identified the patient as a responder.)” and the “INFγ response” value (Patient JA046) was “no (An INFγ response above SFC 500 identified the patient as a responder.)”. The “INFγ response” value (Patient JA047) was “no (An INFγ response above SFC 500 identified the patient as a responder.)”, the “INFγ response” value (Patient JA066) was “no (An INFγ response above SFC 500 identified the patient as a responder.)” and the “INFγ response” value (Patient JA067) was “no (An INFγ response above SFC 500 identified the patient as a responder.)”. For the same sequence, the “INFγ response” value (Patient JA086) was “no (An INFγ response above SFC 500 identified the patient as a responder.)”.
